Laboratory results: paper PMC10487843, “Evaluation of Anticancer and Anti-Inflammatory Activities of Some Synthetic Rearranged Abietanes” (International Journal of Molecular Sciences, 2023)
Values after ≈ are worked out from the molar mass of the structure shown.

Columns and labels:
HT29 cells [1] = assay: Hoechst-stained fluorescence microscopy (nuclear morphology); assay type: cell-based, human; settings: HT29, 72 h
From the text: To assess the apoptosis induction capacity of compounds 5 and 13 on HT29 cells, we performed Hoechst […] nuclear staining, a well-established method for visualizing the morphological changes associated with apoptosis. Two principal morphological characteristics can be observed in the apoptosis process, chromatin condensation and nuclei fragmentation. Hoechst is a dye capable of penetrating cells and binding to double-stranded DNA, emitting blue light that can be visualized by using fluorescence microscopy.
The morphological changes were analyzed using Hoechst-stained fluorescence microscopy. For the analysis, 15 × 10^4 HT29 cells were plated on a coverslip within a 24-well plate. […] The cells were washed twice with PBS, treated with cold MeOH for 3 min, washed again with PBS, and then incubated in 500 μL of Hoechst solution (50 ng/mL) in PBS for 15 min in the dark. Finally, the samples were visualized through fluorescent microscopy (DMRB, Leica Microsystems, Wetzlar, Germany) under a DAPI filter.

HT29 cells [2] = assay: HT29 cell cycle analysis (PI flow cytometry); assay type: cell-based, human; settings: HT29, 72 h
Experimental: Flow cytometry was employed to assess the impact of compounds 5 and 13 on the cell cycle profiles of HT29 cells after 72 h of treatment; by using propidium iodide (PI) incorporation, whose fluorescence directly correlated with DNA content, we analyzed the distribution of cells in different cell cycle phases.
The amount of DNA in the different phases of the cell cycle (G0/G1, S, and G2/M) was quantified using flow cytometry after staining with propidium iodide (PI). HT29 cells were seeded at a density of 5 × 10^4 cells per well in 24-well plates containing 1.5 mL of culture medium. […] Next, the cells were washed twice with PBS, trypsinized, and resuspended in 1 × TBS (10 mM Tris and 150 mM NaCl). After this, Vindelov buffer (100 mM Tris, 100 mM NaCl, 10 mg/mL Rnase, 1 mg/mL PI, and 0.1% Triton x-100, pH 8) was added. Finally, the cells were kept on ice and stained with 20 μL of 1 mg/mL PI solution before being measured. Each experiment analyzed approximately 10 × 10^3 cells. The experiments were performed twice, each with three replications per assay. The samples were analyzed using a flow cytometer, and the number of cells in each stage of the cell cycle was estimated by […] cell sorting (FACS) at 488 nm in an Epics XL flow cytometer (Coulter Corporation, Hialeah, FL, USA).

HT29 cells [3] = assay: Annexin V-FITC/PI flow cytometry apoptosis analysis; assay type: cell-based, human; settings: HT29, 72 h; for total apoptosis, % of cell population: control 9%
From the text: To further investigate the potential mechanisms underlying the cytotoxic and cytostatic effects of compounds 5 and 13 on HT29 cells, Annexin V–FITC/PI double staining along with […] cell sorter (FACS) cytometry analysis was employed for determinate apoptosis induction. This assay allowed for the distinction of different cell populations, including normal cells (Annexin V− PI−), early apoptotic cells (Annexin V+ PI−), late apoptotic cells (Annexin V+ PI+), and necrotic cells (Annexin V− PI+).
These assays on the HT29 cell line were conducted 72 h after treatment with the selected rearranged abietanes at their corresponding IC50 and IC80 concentrations.
Flow cytometry was used to detect annexin V-FICT and PI double staining, to quantify the pro-apoptotic impact of compounds 5 and 13. Apoptosis was assessed through flow cytometry using a FACScan flow cytometer (Coulter Corporation, Hialeah, FL, USA). In this assay, 5 × 10^4 HT29 cells were plated in 24-well plates with 1.5 mL of medium and incubated for 24 h. The cells were then treated with the selected compounds in triplicate for 24, 48, and 72 h at their corresponding IC50 and IC80 concentrations. The cells were harvested and resuspended in a binding buffer (10 mM HEPES/NaOH with pH 7.4, 140 mM NaCl, and 2.5 mM CaCl2). Subsequently, Annexin V-FITC conjugate (1 µg/mL) was added and incubated for 15 min in the dark at room temperature. The cells were stained with 5 µL of 1 mg/mL PI solution before analysis. Approximately 10 × 10^3 cells were analyzed in each experiment; the experiments were performed twice, each with three replications per assay.

[4] = system: murine melanoma (B16–F10); assay: MTT cell viability assay, B16-F10; assay type: cell-based; settings: Mus musculus, 72 h; for IC80: 80% growth inhibition
From the text: In this study, we employed the MTT (3-(4,5-dimethyl thiazol-2-yl)-2,5-diphenyltetrazolium bromide) colorimetric assay to evaluate the cytotoxic activity of selected abietanes (compounds 5, 7, 13, 17, and 19) against three tumor cell lines: human colon adenocarcinoma (HT29), human hepatocarcinoma (HepG2), and murine melanoma (B16–F10). The MTT assay relied on the conversion of MTT to formazan by viable cells, with the formazan concentration proportional to the number of viable cells. The concentrations required for 50 and 80% growth inhibition (IC50 and IC80) were determined for each compound.
The human colorectal adenocarcinoma cell line HT29 (ECACC no. 9172201; ATCC no. HTB-38), the human hepatocarcinoma cell line HepG2 (ECACC no. 85011430), the mouse melanoma cells B16–F10 (ATCC no. CRL-6475), and the murine monocyte/macrophage like RAW 264.7 cell line (ATCC no, TIB-71) were obtained from the cell bank of the University of Granada, Spain. The tumor cell lines were cultured in DMEM (Dulbecco’s modified Eagle’s medium) supplemented with 2 mM glutamine, 10% heat-inactivated FCS (fetal calf serum), and 50 μg/mL of gentamicin (for all cancer cell lines). The RAW 264.7 cell line was cultured in RPMI1640 medium, supplemented with 2 mM glutamine, 10% heat-inactivated FCS, and 50 μg/mL of gentamicin. All cell lines were incubated at 37 °C, in an atmosphere of 5% CO2 and 95% humidity. The culture media were changed every 48 h, and the confluent cultures were separated with a trypsin solution (0.25% EDTA). In all experiments, monolayer cells were grown to 80–90% confluence in sterile cell culture flasks.
The effects of the compounds on the cell viability were established using the MTT method (Sigma, St. Louis, MO, USA). The cytotoxicity of the compounds was assessed by measuring the absorbance of MTT dye staining of metabolically competent cells. The cells were cultivated in 96-well plates at 6.0 × 10^3 cells/mL for the HT29 and RAW 264.7 cell lines, at 5.0 × 10^3 cells/mL for B16–F10 cells, and 15.0 × 10^3 cells/mL for the HepG2 cell line, with a final volume of 200 μL per well being incubated with the different products (0–100 μg/mL). After 72 h, 100 μL of MTT solution (0.5 mg/mL) in 50% of PBS and 50% of the medium was added to each well. Following incubation for 1.5 h, formazan was resuspended in 100 μL of DMSO, and each concentration was tested in triplicate. The cell viability relative to the untreated control cells was determined by measuring the absorbance at 570 nm using an ELISA plate reader (Tecan Sunrise MR20–301, TECAN, Grödig, Austria).

| IC50 [4] [µg/mL] | SMILES | nuclear morphology, Hoechst staining (HT29 cells [1]; IC50 concentration) | nuclear morphology, Hoechst staining (HT29 cells [1]; IC80 concentration) | increase in the cell population in the S phase compared with the control (HT29 cells [2]; regardless of the administered dose (IC50 and IC80)) [%] | early apoptosis, % of cell population (HT29 cells [3]; IC50 concentration) [%] | late apoptosis, % of cell population (HT29 cells [3]; IC50 concentration) [%] | total apoptosis, % of cell population (HT29 cells [3]; IC50 concentration) [%] | early apoptosis, % of cell population (HT29 cells [3]; IC80 concentration) [%] | late apoptosis, % of cell population (HT29 cells [3]; IC80 concentration) [%] | total apoptosis, % of cell population (HT29 cells [3]; IC80 concentration) [%] | IC80 [4] [µg/mL] | increase in the cell population in the S phase compared with the control (HT29 cells [2]; IC50 dose) [%] | increase in the cell population in the S phase compared with the control (HT29 cells [2]; IC80 dose) [%] | percentage of necrotic cells (HT29 cells [3]; IC50 concentration, control 3%) [%] |
| --- | --- | --- | --- | --- | --- | --- | --- | --- | --- | --- | --- | --- | --- | --- |
| 4.14 ± 0.25 (≈ 13.8 µM) | CC(C)C1=CC2=C(C(=O)C1=O)[C@@]1(C)CCCC(C)(C)[C@@H]1CC2 [Compound 13] | loss of normal nuclear architecture and chromatin condensation | formation of pyknotic or contracted nuclei followed by fragmentation into apoptotic bodies | 10 | 6 | 12 | 18 | 7 | 14 | 21 | 5.41 ± 0.25 (≈ 18 µM) | – | – | – |
| 13.6 ± 0.14 (≈ 43.9 µM) | CC(C)C1=CC2=C(C(=O)C1=O)C1=CC(=O)CC(C)(C)[C@@]1(C)C=C2 [Compound 5, Pygmaeocin B] | loss of normal nuclear architecture and chromatin condensation | formation of pyknotic or contracted nuclei followed by fragmentation into apoptotic bodies | – | 5 | 17 | 22 | 12 | 23 | 35 | 14.04 ± 0.08 (≈ 45.2 µM) | 4 | 10 | 15 |
